# Columns and labels:
# VHL Elongin B/C complex = VHL Elongin B/C complex (Homo sapiens (Human), UniProt P40337); experiment: Fluorescence Polarization (FP) VHL Binding Assay; conditions: VHL binding, FP assay; geometric mean where more than one measurement
# Method: The binding of test compounds to the VHL Elongin B/C complex was measured using a fluorescence polarization tracer competition assay. The VHL/Elongin B/C protein complex used in the assay was generated as follows. The coding region for amino acids E55-D213 of human VHL with N-terminal His6 tag with a TEV-protease cleavage site was co-expressed with Elongin B (residues M1-Q118) and Elongin C (Residues M17-C112) in E. coli. […] The purified VHL/Elongin B/C complex was dialyzed into formulation buffer: 20 mM Bis-Tris pH7.0, 150 mM NaCl, 1 mM DTT. A VHL fluorescence polarization probe (prepared in Example 91), consisted of a VHL ligand coupled to carboxytetramethylrhodamine (TAMRA); […] Compounds were prepared as a serial dilution in DMSO at a concentration 25-fold higher than the final desired concentration and acoustically dispensed (400 nl) into a ProxiPlate-384 Plus F, Black 384-shallow well Microplate (Part Number 6008260). DMSO was dispensed into wells designated for “VHL control” (without compound) wells. The “Assay Buffer” consisted of 50 mM Tris pH 8.0, 120 mM NaCl, 0.005% Nonidet P-40, and 1% DMSO (v/v). Assay Buffer containing […] VHL Elongin B/C complex was prepared and 5 μl dispensed using a BioRapTR (Beckman Coulter) into each well of the assay plate. Assay Buffer was also dispensed into “no VHL control” wells using the same method. A “pre-assay” fluorescence measurement was made using an Infinite® M1000 (Tecan) plate reader (Excitation 530 nm, Emission 574 nm, Bandwidth 10 nm). Assay Buffer containing 3.34 nM of the VHL FP probe was prepared in Assay Buffer and 5 μl dispensed into each well of the assay plate using a BioRapTR (Beckman Coulter). The final VHL/Elongin B/C protein concentration is 2.64 nM and the final probe concentration is 1.67 nM. Assay plates were briefly centrifuged and incubated for 1 hour at room temperature. “Post-assay” fluorescence polarization measurements were made as described for the “pre-assay” fluorescence measurement. Fluorescence polarization was calculated for each sample; taking into account the “pre-assay” fluorescence measurements and subtracting the fluorescence signal of the compound/VHL only (“pre-assay”) measurements from the “post-assay” fluorescence polarization measurements, for each plane of polarization. The data were analyzed using Genedata Screener software and normalized to the “no VHL control” and “VHL control” (without compound). IC50 values were calculated using a four parameter curve fit (Robust method).
# [1] = molecular target: VHL co-expressed with Elongins B and C (Homo sapiens (Human), UniProt P40337); experiment: Surface Plasmon Resonance Assay; type: binding; conditions: SPR measured VHL affinity; geometric mean where more than one measurement
# Sequence of VHL co-expressed with Elongins B and C (P40337 whole entry, looked up): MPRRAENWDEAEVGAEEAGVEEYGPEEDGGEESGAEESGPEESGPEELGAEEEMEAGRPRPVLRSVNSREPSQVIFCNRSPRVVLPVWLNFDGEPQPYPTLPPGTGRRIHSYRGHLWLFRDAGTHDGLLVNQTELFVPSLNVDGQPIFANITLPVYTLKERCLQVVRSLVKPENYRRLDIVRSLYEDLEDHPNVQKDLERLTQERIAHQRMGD
# Sequence of VHL co-expressed with Elongins B and C (Q15370 whole entry partner, looked up): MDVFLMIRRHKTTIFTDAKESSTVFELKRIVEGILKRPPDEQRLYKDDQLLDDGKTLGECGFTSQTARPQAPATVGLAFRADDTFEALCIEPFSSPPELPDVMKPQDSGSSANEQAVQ
# Sequence of VHL co-expressed with Elongins B and C (Q15369 whole entry partner, looked up): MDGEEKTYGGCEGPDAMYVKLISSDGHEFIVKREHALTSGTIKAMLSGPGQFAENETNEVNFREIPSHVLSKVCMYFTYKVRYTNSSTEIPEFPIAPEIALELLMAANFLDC
# Method: Using a Biacore T200, […] tagged VHL co-expressed with Elongins B and C were immobilized to a Biacore SA chip in running buffer without DMSO. Compounds were tested individually at varying concentrations in running buffer (50 mM HEPES pH 7.2, 150 mM NaCl, 0.5 mM TCEP, 0.001% Tween 20, 0.2% PEG3350, 2% DMSO) at 20° C. Sensorgrams were run in order from low to high concentration using a flow rate of 80 μL/min. Association and disassociation times were varied depending on the estimated potency of the compound tested. […] Galdeano et al, J. Med. Chem. 2014, 57, 8657-8663, herein incorporated by reference) which retained greater than 75% of the activity over the course of the run. Analysis of the binding curves and determination of the kinetic parameters were done using evaluation software (Version 2.0, Biacore).
# [2] = molecular target: NanoLuc VHL fusion protein (Homo sapiens (Human), UniProt P40337); experiment: VHL HEK-293 BRET Assay (NanoBRET Target Engagement); type: cell-based; conditions: geometric mean where more than one measurement
# Sequence of NanoLuc VHL fusion protein (P40337 whole entry, looked up, the tested form may be a part): as the sequence (P40337 whole entry, looked up) above
# Sequence of NanoLuc VHL fusion protein (Q15370 whole entry partner, looked up, the tested form may be a part): as the sequence (Q15370 whole entry partner, looked up) above
# Sequence of NanoLuc VHL fusion protein (Q15369 whole entry partner, looked up, the tested form may be a part): as the sequence (Q15369 whole entry partner, looked up) above
# Method: The VHL NanoBRET™ Target Engagement Assay analyzes the apparent affinity of test compounds for VHL in cells by competitive displacement of a VHL NanoBRET™ tracer reversibly bound to a NanoLuc® VHL fusion protein stably expressed in the cells. Test compounds were transferred to the assay plate (384 Well White Non-Binding Corning Assay Plates (Corning-3574)) using an Echo 555 Liquid Handler (Labcyte) in 2.5 nL increments and, as appropriate, intermediate stock concentrations of compounds, in order to prepare a titration series. 50 nL of control compound (10 mM; parental unlabeled VHL antagonist; see structure below) and 50 nL of DMSO (negative control) were dispensed into the appropriate control wells. DMSO was backfilled to a final volume of 50 nL as required. 50 nl per well of 1 mM VHL NanoBRET™ Tracer in DMSO (NanoBRET™ Tracer-PEG2-590 (see structure below)) was transferred into each well using an Echo 555 (ultimately yielding a final concentration of 1 uM). HEK 293 RT VHL-NanoLuc® stable cells were cultured in DMEM High Glucose with Pyruvate, 10% fetal bovine serum, 2 mg/mL of Geneticin Selective Antibiotic (50 mg/ml) and 2 mM HEPES (1 M). Cells were seeded in Opti-MEM (Life Technologies-11058-021), 1.7×10^5 cells/mL, 40 μl per well into the assay plate, centrifuged at 500 rpm for 30 seconds and incubated for 2 hours. Max Signal control wells consisted of DMSO only treated wells. Minimum Signal control wells contained of 10 uM parental unlabeled VHL antagonist (control compound—see structure below). 3× Complete Substrate plus Inhibitor Solution was prepared in Opti-MEM (consists of a 1:166 dilution of NanoBRET™ Nano-Glo® Substrate plus a 1:500 dilution of Extracellular NanoLuc® Inhibitor in Opti-MEM), and 20 ul was dispensed into each well of the 384-well plate and centrifuged at 1000 rpm for 1 minute, then incubated for 2 minutes at room temperature. Background Signal control wells were prepared without tracer for background correction steps. Plates were read using a PerkinElmer Envision Reader (model 2104-0020) equipped with Luminescence option (Mirror: BRET2 Enh (PE Barcode 659), Emission Filter: Omega 610LP (Barcode 504), 2nd Emission Filter: Umbelliferone 460 (Barcode 207), Measurement height: 6.5 mm, Measurement time: 1 s). The raw BRET ratio values were calculated by dividing the acceptor emission value (610 nm) by the donor emission value (460 nm) for each sample. To correct for background, the BRET ratio in the absence of tracer (average of no-tracer control samples) was subtracted from the BRET ratio of each sample. Raw BRET units were converted to milliBRET units (mBU) by multiplying each raw BRET value by 1,000. The normalized NanoBRET™ signal was calculated relative to the Max Signal control wells (DMSO treated control wells) and the Minimum Signal control wells. Percentage inhibition was calculated relative to the Minimum Signal control and Maximum Signal control wells. IC50 values were derived by four parameter curve fitting using the Robust method.
# Sequence of VHL Elongin B/C complex (P40337 whole entry, looked up, the tested form may be a part): as the sequence (P40337 whole entry, looked up) above
# Sequence of VHL Elongin B/C complex (Q15370 whole entry partner, looked up, the tested form may be a part): as the sequence (Q15370 whole entry partner, looked up) above
# Sequence of VHL Elongin B/C complex (Q15369 whole entry partner, looked up, the tested form may be a part): as the sequence (Q15369 whole entry partner, looked up) above
SMILES,IC50 (VHL Elongin B/C complex),Kd [1],IC50 [2]
"CC/C(=C(\c1ccc(O)cc1)c1ccc(OCCN(C)C(=O)CCCOCCOc2cc(C(C(=O)N3C[C@H](O)CC3C3=NC(=O)[C@](C)(c4ccc(-c5scnc5C)cc4)N3)C(C)C)on2)cc1)c1ccccc1 (single isomer, unassigned) [Example 1003.4]",≥ 100 µM,67.1 µM,≥ 100 µM
"CCN1N=C([C@@H]2C[C@@H](O)CN2C(=O)C(c2cc(C)no2)C(C)C)NC1(C)C (single isomer, unassigned) [Example 115.1]",≥ 400 µM,150 µM,100 µM
"Cc1cc([C@H](C(=O)N2C[C@H](O)C[C@H]2C2=NO[C@](c3ccccc3)(C(F)(F)F)N2)C(C)C)on1 (mixture of isomers) [Example 114.4, (2S)-1-((2S,4R)-4-Hydroxy-2-(5-phenyl-5-(trifluoromethyl)-4,5-dihydro-1,2,4-oxadiazol-3-yl)pyrrolidin-1-yl)-3-methyl-2-(3-methylisoxazol-5-yl)butan-1-one and (2R)-1-((2S,4R)-4-Hydroxy-2-(5-phenyl-5-(trifluoromethyl)-4,5-dihydro-1,2,4-oxadiazol-3-yl)pyrrolidin-1-yl)-3-methyl-2-(3-methylisoxazol-5-yl)butan-1-one]",58.3 µM,5.86 µM,59.9 µM
"C#Cc1cccc(Nc2ncnc3cc(OCCOC)c(OCCOCC#CC#CCOc4cc(C(C(=O)N5C[C@H](O)CC5C5=NC(=O)[C@](C)(c6ccc(-c7scnc7C)cc6)N5)C(C)C)on4)cc23)c1 (single isomer, unassigned) [Example 1004.1]",6.25 µM,,68.3 µM
"C#Cc1cccc(Nc2ncnc3cc(OCCOC)c(OCCOCC#CC#CCOc4cc(C(C(=O)N5C[C@H](O)CC5C5=NC(=O)[C@](C)(c6ccc(-c7scnc7C)cc6)N5)C(C)C)on4)cc23)c1 (single isomer, unassigned) [Example 1004.2]",75.8 µM,,46.4 µM
"C#Cc1cccc(Nc2ncnc3cc(OCCOC)c(OCCOCC#CC#CCOc4cc(C(C(=O)N5C[C@H](O)CC5C5=NC(=O)[C@](C)(c6ccc(-c7scnc7C)cc6)N5)C(C)C)on4)cc23)c1 (single isomer, unassigned) [Example 1004.4]",6.25 µM,,≥ 100 µM
"C#Cc1cccc(Nc2ncnc3cc(OCCOC)c(OCCOCC#CC#CCOc4cc(C(C(=O)N5C[C@H](O)CC5C5=NC(=O)[C@](C)(c6ccc(-c7scnc7C)cc6)N5)C(C)C)on4)cc23)c1 (single isomer, unassigned) [Example 1004.3]",75.8 µM,,≥ 100 µM

# Further lines, results first:
IC50 (VHL Elongin B/C complex),Kd [1],IC50 [2],SMILES
93.6 µM,≥ 150 µM,77.1 µM,"Cc1cc(C(C(=O)N2C[C@H](O)CC2C2=NC(C)(C)C(C)(C)N2)C(C)C)on1 (stereo partly drawn) [Example 136.1, 1-((4R)-4-Hydroxy-2-(4,4,5,5-tetramethyl-4,5-dihydro-1H-imidazol-2-yl)pyrrolidin-1-yl)-3-methyl-2-(3-methylisoxazol-5-yl) butan-1-one]"
10 µM,,21.7 µM,"Cc1cc(C(C(=O)N2C[C@H](O)C[C@H]2C2=NO[C@](C)(c3ccc(-c4ccccc4F)cc3)N2)C(C)C)on1 (single isomer, unassigned) [Example 139.1]"
≥ 400 µM,150 µM,100 µM,"Cc1cc(C(C(=O)N2C[C@H](O)CC2C2=NC(=O)[C@](C)(c3ccc(-c4scnc4C)cc3)N2)C(C)C)sn1 (single isomer, unassigned) [Example 119.1]"
≥ 400 µM,≥ 150 µM,100 µM,"Cc1cc(C(C(=O)N2C[C@H](O)C[C@H]2C2=NN(c3ccccc3)C(C)(C)N2)C(C)C)on1 (single isomer, unassigned) [Example 135.1]"
32.9 µM,10.1 µM,54.6 µM,"CC(=O)N1CCCCC1C(=O)N1C[C@H](O)CC1C1=NC(=O)[C@](C)(c2ccc(-c3scnc3C)cc2)N1 (single isomer, unassigned) [Example 124.2]"
≥ 400 µM,,≥ 100 µM,"Cc1cc(C(C(=O)N2C[C@H](O)CC2C2=NS(=O)(=O)CN2)C(C)C)on1 (single isomer, unassigned) [Example 137.1]"
160 µM,,100 µM,"Cc1cc([C@@H](C(=O)N2C[C@H](O)CC2C2=NOC3(CCCc4ccccc43)N2)C(C)C)on1 (single isomer, unassigned) [Example 131.1]"
47.3 µM,,≥ 100 µM,"Cc1cc(C(C(=O)N2C[C@H](O)CC2C2=NS(=O)(=O)CN2)C(C)C)on1 (single isomer, unassigned) [Example 137.2]"
19.9 µM,,20 µM,"Cc1cc([C@H](C(=O)N2C[C@H](O)CC2C2=NOC3(CCCc4ccccc43)N2)C(C)C)on1 (single isomer, unassigned) [Example 131.4]"
≥ 400 µM,,≥ 100 µM,"Cc1cc(C(C(=O)N2C[C@H](O)CC2C2=NS(=O)(=O)CN2)C(C)C)on1 (single isomer, unassigned) [Example 137.3]"
242 µM,,100 µM,"Cc1cc([C@@H](C(=O)N2C[C@H](O)CC2C2=NOC3(CCCc4ccccc43)N2)C(C)C)on1 (single isomer, unassigned) [Example 131.2]"
0.0628 µM,,0.0678 µM,"Cc1cc(C(C(=O)N2C[C@H](O)C[C@H]2C2=NO[C@](C)(c3ccc(-c4ccccc4F)cc3)N2)C(C)C)on1 (single isomer, unassigned) [Example 139.2]"
19.6 µM,,23 µM,"Cc1cc([C@H](C(=O)N2C[C@H](O)CC2C2=NOC3(CCCc4ccccc43)N2)C(C)C)on1 (single isomer, unassigned) [Example 131.3]"
